Results from patent US8754047B2, “Peptide compositions and methods of use” (The Research Foundation for the State University of New York, priority 2008, dated 2014).
“Also recorded” adds a separate entry of the source. Positions of bridges follow the written chain, without caps; N, C: chain ends. Residues, ends and D or L forms follow the SMILES beside them. No end group written: not given here.

How the values were obtained:
[1] = tested on: BxPC-3 human pancreatic cancer cells; settings: 24 h
Experimental: (§1) 10,000 HT29 or SW480 human colon cancer cells, BxPC-3 human pancreatic cancer cells, and MCF7 and MDA-MB-231 breast cancer cells were obtained from American Type Culture Collection (ATTC), Manassas, Va., and were seeded in separate 96-well plates. After treatment with various concentrations (6.25 μM, 12.5 μM, 25 μM, 50 μM, 100 μM, or 200 μM) of test peptide for 24 h, cells were stained with MTT (3-(4,5-Dimethyl-2-thiazolyl)-2,5-diphenyl-2H-tetrazolium bromide, from Sigma-Aldrich) following the instructions of the manufacturer. Before dissolving MTT in SDS, the HT29 and SW480 cells were photographed using a digital camera connected with a phase-contrast microscope. (FIG. 2A1-8, and FIG. 2B1-6). Cells that are alive convert MTT into formazan in their active mitochondria and appear dark purple; dead cells are not stained by MTT and appear colorless.
(§2) The IC50 is the concentration of the test agent that inhibits cell growth by 50% at 24 hours of exposure. IC50s were determined using the MTT assay or using the cell Titer-Glo method and following the instructions of the manufacturer ([…]). […] (Sun, Y., and Rigas, B., (2008), Cancer Res., 68(20): 8269-8277).

MCF7 breast cancer cells = settings: 24 h
Experimental: as §1, §2

[2] = tested on: MDA-MB-231 breast cancer cells; settings: 24 h
Experimental: as §1, §2

[3] = tested on: HT29, SW480, BxPC3, MCF7, and MDA-MB-231 cell lines; type: cell-based, human; settings: 24 h
Description: (FIG. 2A1-8, and FIG. 2B1-6).

[4] = tested on: SW480 human colon cancer cells; assay: Flow cytometry forward/side scatter, proportion of dead cells, SW480; type: cell-based
Experimental: (§3) SW480 human colon cancer cells and MCF7 breast cancer cells were grown following the instructions of American Type Culture Collection (ATCC, Monassas, Va.). The cells were treated with the test peptides (YJB01, YJB05, or YJB06) for 24 hrs at concentrations ranging from 0 μM, to 200 μM and subjected to flow cytometric analysis following standard protocols.
(§4) SW480 human colon cancer cells and MCF7 breast cancer cells were grown following the instructions of American Type Culture Collection (ATCC, Monassas, Va.). The cells were treated with the test peptides for 24 hrs at concentrations ranging from 0 μM, to 200 μM and subjected to flow cytometry analysis following standard protocols. […] The circumscribed (gated, outlined) areas in the figure indicate dead cells; dead cells generally have higher density (side scatter) and smaller size (forward scatter) than living cells.

[5] = tested on: MCF-7 human breast cancer cells; assay: Flow cytometry forward/side scatter, proportion of dead cells, MCF7; type: cell-based; settings: 200 μM, 24 hr
Experimental: as §3, §4

[6] = tested on: SW480 human colon cancer cells; assay: Annexin V-FITC flow cytometry for apoptotic cells, SW480; type: cell-based; settings: 24 hrs, 0 μM to 200 μM
Experimental: (§5) SW480 human colon cancer cells and MCF7 breast cancer cells were grown following the instructions of American Type Culture Collection (ATCC, Monassas, Va.). The cells were treated with the test peptides (YJB01, YJB05, or YJB06) for 24 hrs at concentrations ranging from 0 μM, to 200 μM. After treatment, cells were trypsinized and stained with Annexin V-FITC (100× dilution) for 15 minutes. Annexin V-FITC fluorescence intensities were analyzed by FACSCaliber (BD Bioscience) following standard protocols. Annexin V (+) cells are apoptotic cells.
When cells undergo apoptosis, the inner membrane phospholipid, phosphotidylserine (PS), flips to the outer membrane and can be recognized by the […]. The green FITC fluorescence can be determined by flow cytometry and thus Annexin V (+) cells are apoptotic cells.
as §5, with “In this study, SW480” for “SW480”, “human” for “human colon”, “treatment” for “treatment,”, “protocols.” for “protocols. Annexin V (+) cells are apoptotic cells.”

thioredoxin 1 = target: T1, thioredoxin 1 (Homo sapiens, UniProt P10599); assay: Thioredoxin 1 redox state, native PAGE immunoblot in SW480 cells; type: cell-based; settings: YJB01 20 μM and 100 μM, YJB05 100 μM
T1 construct: endogenous in cells; host or cells: SW480 human colon cancer cells
T1 sequence (P10599 1-105): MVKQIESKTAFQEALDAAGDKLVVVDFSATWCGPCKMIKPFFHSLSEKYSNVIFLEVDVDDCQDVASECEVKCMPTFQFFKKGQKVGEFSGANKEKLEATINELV
Experimental: (§6) SW480 human colon cancer cells were grown following the instructions of American Type Culture Collection (ATCC, Monassas, Va.). Cells were treated with either no peptide, with YBJ01 (at 20 μM and 100 μM), or with YBJ05 (at 100 μM). 10^6 cells were lysed in 6 mol/L guanidinium chloride, 50 mmol/L Tris/HCL (pH 8.3), 3 mmol/L EDTA, and 0.5% Triton-X-100 containing 50 mmol/L iodoacetic acid. After 30 min at 37° C., the excess idoacetic acid was removed using Microspin G-25 columns (GE Healthcare Life Sciences). Oxidized and reduced thioredxoin was separated by native PAGE. The gel was electroblotted onto a nitrocellulose membrane and probed with thioredoxin antibodies, followed by HRP-conjugated secondary antibody. Bands corresponding to thioredoxin were visualized by ECL.
as §6, with “10^6 cells from each sample were lysed” for “10^6 cells were lysed”, “native PAGE. […]” for “native PAGE. The gel was electroblotted onto a nitrocellulose membrane and probed with thioredoxin antibodies, followed by HRP-conjugated secondary antibody. Bands corresponding to thioredoxin were visualized by ECL.”

peroxiredoxin 1 = assay: Oxidized peroxiredoxin 1 (Prx-O3) immunoblot in SW480 cells; type: cell-based, human; settings: 1 h, YJB01 20 μM and 100 μM, YJB05 100 μM
Experimental: (§7) The oxidized peroxiredoxin 1 (sulphonic-peroxiredoxin, Prx-O3) was detected by using the specific anti-Prx-O3 antibody. Briefly, after SW480 cells were treated with either no peptide, with YBJ01 (at 20 μM and 100 μM), or with YJB05 (at 100 μM) for 1 h, total cell lysates were collected and separated on the SDS-PAGE gel. The gel was electroblotted onto a nitrocellulose membrane and probed with anti-Prx-O3, followed by HRP-conjugated secondary antibody. Bands corresponding to sulphonic-peroxiredoxin were visualized by ECL
as §7, with “anti-Prx-O3 antibody” for “anti-Prx-O3 antibody.”, “with YBJ05” for “with YJB05”

## CC[C@H](C)[C@H](NC(=O)[C@H](CCCCN)NC(=O)[C@@H](NC(=O)[C@H](CCC(N)=O)NC(=O)[C@H](CCCNC(=N)N)NC(=O)[C@@H]1CCCN1C(=O)[C@H](CCCNC(=N)N)NC(=O)[C@@H]1CSSC[C@H](NC(=O)[C@@H](N)[C@@H](C)O)C(=O)N2CCC[C@H]2C(=O)N[C@@H](Cc2ccc(O)cc2)C(=O)N1)[C@@H](C)CC)C(=O)N[C@@H](Cc1c[nH]c2ccccc12)C(=O)N[C@@H](Cc1ccccc1)C(=O)N[C@@H](CCC(N)=O)C(=O)N[C@@H](CC(N)=O)C(=O)N[C@@H](CCCNC(=N)N)C(=O)N[C@@H](CCCNC(=N)N)C(=O)N[C@@H](CCSC)C(=O)N[C@@H](CCCCN)C(=O)N[C@@H](Cc1c[nH]c2ccccc12)C(=O)N[C@@H](CCCCN)C(=O)N[C@@H](CCCCN)C(=O)O [YJB03]
[1]
  IC50: 153 µM
MCF7 breast cancer cells
  IC50: 21 µM
[2]
  IC50: 309 µM

## ATWAGPAKPRQIKIWFQNRRMKWKK [YJB05, reference compound]
[3]
  IC50: > 2000 µM
[4]; 200 μM, 24 hr
  dead cells, SW480: 21.62%
[5]
  dead cells, MCF7: 12.52%
[6]
  apoptosis, Annexin V (+) cells, SW480: ineffective
Thioredoxin 1
  induction of the oxidized form of thioredoxin 1: failed to induce oxidation of thioredoxin 1; also recorded: fails to induce oxidation
Peroxiredoxin 1
  induction of the oxidized form of peroxiredoxin 1: fails to induce oxidation

## CC[C@H](C)[C@H](NC(=O)[C@H](CCCCN)NC(=O)[C@@H](NC(=O)[C@H](CCC(N)=O)NC(=O)[C@H](CCCNC(=N)N)NC(=O)[C@@H]1CCCN1C(=O)[C@H](C)NC(=O)[C@@H]1CCCN1C(=O)[C@@H]1CSSC[C@H](NC(=O)[C@@H](N)C(C)C)C(=O)N2CCC[C@H]2C(=O)N[C@@H](C(C)C)C(=O)N1)[C@@H](C)CC)C(=O)N[C@@H](Cc1c[nH]c2ccccc12)C(=O)N[C@@H](Cc1ccccc1)C(=O)N[C@@H](CCC(N)=O)C(=O)N[C@@H](CC(N)=O)C(=O)N[C@@H](CCCNC(=N)N)C(=O)N[C@@H](CCCNC(=N)N)C(=O)N[C@@H](CCSC)C(=O)N[C@@H](CCCCN)C(=O)N[C@@H](Cc1c[nH]c2ccccc12)C(=O)N[C@@H](CCCCN)C(=O)N[C@@H](CCCCN)C(=O)O [YJB04] (H-VCPVCPAPRQIKIWFQNRRMKWKK-OH; disulfide 2-5; N-terminus and C-terminus assumed)
[1]
  IC50: 123 µM
MCF7 breast cancer cells
  IC50: 25 µM
[2]
  IC50: 195 µM

## C[C@H](N)C(=O)N[C@H](C(=O)N[C@@H](Cc1c[nH]c2ccccc12)C(=O)N[C@H]1CSSC[C@@H](C(=O)O)NC(=O)[C@@H]2CCCN2C(=O)CNC1=O)[C@@H](C)O [YJB06] (H-ATWCGPC-OH; disulfide 4-7 (inferred); N-terminus and C-terminus assumed)
[3]
  IC50: > 2000 µM
[4]; 24 hrs, 0 μM to 200 μM
  cell killing effect, SW480: failed to kill SW480 colon cancer cells
